From the supplement of paper PMC10307832

Experiments:
Test in all cases: relative viability (nuclei count vs DMSO), 5 days (fraction); higher = more cells survive
Bortezomib + Linsitinib = compound: CC(C)C[C@H](NC(=O)[C@H](Cc1ccccc1)NC(=O)c1cnccn1)B(O)O [Bortezomib] + C[C@]1(O)C[C@@H](c2nc(-c3ccc4ccc(-c5ccccc5)nc4c3)c3c(N)nccn32)C1 [Linsitinib] (partner 1 µM)
How it was run: (§1)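 Relative viability is defined as nuclei in treated wells over nuclei in vehicle wells. Duplicate plates were run and medians reported. Lung cancer cell lines in 1536-well plates were dosed by pin tool one day after seeding, with one drug or with a fixed anchor-drug dose plus five library-drug doses (not always all listed) in √10 steps, and nuclei were counted after 5 days.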

[1] = compound: CC1=CC(=NN1)NC2=CC(=NC(=N2)/C=C/C3=CC=CC=C3)N4CCN(CC4)C + C[C@@H](Oc1cc(-c2cnn(C3CCNCC3)c2)cnc1N)c1c(Cl)ccc(F)c1Cl [Crizotinib] (partner 1 µM)
How it was run: as §1

Bortezomib + Trametinib = compound: CC(C)C[C@H](NC(=O)[C@H](Cc1ccccc1)NC(=O)c1cnccn1)B(O)O [Bortezomib] + CC(=O)Nc1cccc(-n2c(=O)n(C3CC3)c(=O)c3c(Nc4ccc(I)cc4F)n(C)c(=O)c(C)c32)c1 [Trametinib] (partner 0.02 µM)
How it was run: as §1

Bortezomib + Navitoclax = compound: CC(C)C[C@H](NC(=O)[C@H](Cc1ccccc1)NC(=O)c1cnccn1)B(O)O [Bortezomib] + CC1(C)CCC(c2ccc(Cl)cc2)=C(CN2CCN(c3ccc(C(=O)NS(=O)(=O)c4ccc(N[C@H](CCN5CCOCC5)CSc5ccccc5)c(S(=O)(=O)C(F)(F)F)c4)cc3)CC2)C1 [Navitoclax] (partner 0.5 µM)
How it was run: as §1

Cell Line | relative viability (Bortezomib + Linsitinib; first compound 0.0002 µM) | relative viability (Bortezomib + Linsitinib; first compound 0.002 µM) | relative viability (Bortezomib + Linsitinib; first compound 0.006325 µM) | relative viability (Bortezomib + Linsitinib; first compound 0.02 µM) | relative viability ([1]; first compound 0.08 µM) | relative viability ([1]; first compound 0.253 µM) | relative viability ([1]; first compound 0.8 µM) | relative viability ([1]; first compound 2.53 µM) | relative viability ([1]; first compound 8 µM) | relative viability (Bortezomib + Trametinib; first compound 0.0002 µM) | relative viability (Bortezomib + Trametinib; first compound 0.000632 µM) | relative viability (Bortezomib + Trametinib; first compound 0.002 µM) | relative viability (Bortezomib + Trametinib; first compound 0.006325 µM) | relative viability (Bortezomib + Trametinib; first compound 0.02 µM) | relative viability (Bortezomib + Navitoclax; first compound 0.0002 µM) | relative viability (Bortezomib + Navitoclax; first compound 0.000632 µM) | relative viability (Bortezomib + Navitoclax; first compound 0.002 µM) | relative viability (Bortezomib + Navitoclax; first compound 0.006325 µM) | relative viability (Bortezomib + Navitoclax; first compound 0.02 µM) | relative viability (Bortezomib + Linsitinib; first compound 0.000632 µM)
RERF-LC-KJ | 0.859 | 0.908 | 0.366 | 0.203 | 0.832 | 0.82 | 0.747 | 0.617 | 0.234 | 0.868 | 0.863 | 0.823 | 0.395 | 0.199 | 1.01 | 1.19 | 0.593 | 0.247 | 0.244 | 
NCI-H1755 | 1.01 | 1 | 0.323 | 0.149 | 0.863 | 0.929 | 0.78 | 0.593 | 0.105 | 0.761 | 0.77 | 0.706 | 0.279 | 0.223 | 0.975 | 0.979 | 0.917 | 0.269 | 0.165 | 0.955
NCI-H2126 | 0.74 | 0.68 | 0.738 | 0.374 | 1.01 | 1 | 0.994 | 0.916 | 0.529 | 0.548 | 0.599 | 0.54 | 0.496 | 0.202 | 0.857 | 0.844 | 0.827 | 0.848 | 0.327 | 0.711
EPLC-272H |  | 1.26 | 1.29 | 0.109 | 0.884 | 1.06 | 0.711 | 0.452 | 0.174 | 0.324 | 0.279 | 0.233 | 0.073 | 0.0585 |  |  | 1.06 | 0.0971 | 0.0714 | 
NCI-H1975 | 0.965 | 0.189 | 0.144 | 0.125 | 0.91 | 0.958 | 0.548 | 0.186 | 0.147 | 0.501 | 0.312 | 0.152 | 0.11 | 0.0939 | 1.05 | 1.05 | 0.315 | 0.136 | 0.133 | 0.964
NCI-H3122 | 1.01 | 1.09 | 0.606 | 0.179 | 0.285 | 0.318 | 0.253 | 0.268 | 0.168 | 0.215 | 0.276 | 0.222 | 0.232 | 0.124 | 1.01 | 1.04 | 1.06 | 0.625 | 0.167 | 1.04
COR-L 105 | 0.848 | 0.711 | 0.293 | 0.282 | 0.897 | 0.731 | 0.445 | 0.222 | 0.191 | 0.449 | 0.42 | 0.414 | 0.375 | 0.376 | 0.745 | 0.786 | 0.684 | 0.291 | 0.253 | 0.99
